According to patent US5294724A, “4-hydroxytetrahydropyran-2-ones and the corresponding dihydroxycarboxylic acid derivatives, salts and esters and a process for their preparation” (priority 1989, dated 1994):
Structures can show the parent of a compound that is named as a salt. Where two headings read alike, the source gives them in different places.

Key:
[1] = tested on: HEP G2 cells; test: Inhibition of cholesterol biosynthesis in cell cultures (HEP G2 cells), incorporation of 14C-sodium acetate in cholesterol; assay type: cell-based; conditions: for IC50 / IC70: Homo sapiens; for Relative potency in %: from IC50
Protocol: 2) Inhibition of cholesterol biosynthesis in cell cultures (EEP G2 cells)
Determination of the inhibition of the incorporation of ^14 C-sodium acetate in cholesterol
Monolayers of HEP G2 cells in lipoprotein-free medium were preincubated with various concentrations of the sodium salts of the dihydroxycarboxylic acids of the formula II for 1 hour. After adding ^14 C-labeled sodium acetate, the incubation was continued for 3 hours. Tritium-labeled cholesterol was added as an internal standard and an aliquot of the cells was subjected to alkaline hydrolysis. The lipids were extracted using chloroform/methanol 2: 1. After adding carrier cholesterol, the lipid mixture was preparatively separated on TLC plates using chloroform/acetone 9: 1. The cholesterol zone was made visible by staining with iodine vapor, additionally detected using a TLC radio scanner and then scraped off. The amount of ^14 C-cholesterol formed was determined scintigraphically and related to mg of cell protein. The same procedure was carried out with cells from the Bame culture without preincubation with a test compound (so-called "solvent control"). The potency of the test compounds was determined by comparison of the biosynthesized ^14 C-cholesterol in test runs and in "solvent control".

[2] = tested on: serum total cholesterol; test: Hypocholesterolemic activity in rabbits after p.o. administration; assay type: in vivo, male white New Zealand rabbits; conditions: rabbit p.o.
Protocol: 4) Hypocholesterolemic activity in rabbits after p.o. administration
Normolipemic male white New Zealand rabbits, body weight 3-3.5 kg, were divided into groups of 5 animals. The groups in each case received one of the test compounds (sodium salts of the compounds of the formula II), suspended in 1% aqueous methylcellulose (®Tylose MH 300), 5.10 or 20 mg/kg/day daily in the morning by stomach tube. The animals of the control groups received only Tylose MH 300. Every 3-4 days samples of venous blood were taken from all animals 20 hours after the oral administration. The serum total cholesterol was determined enzymatically in these samples using the test combination of Boehringer Mannheim (CHOD-PAP high performance method). The serum cholesterol level of the treated animals was compared with that of the control groups. A "discharge phase" followed the 20-day "treatment phase", in which the change in the serum cholesterol level was further monitored.

[3] = biological target: T1, HMG-CoA reductase (Rattus norvegicus, UniProt P51639); test: Inhibition of HMG-CoA reductase activity in solubilized enzyme preparations from rat liver microsomes; assay type: biochemical; conditions: sodium salts of the dihydroxycarboxylic acids; mean of 3 parallel samples; read-out: IC50 (molar concentration necessary for a 50% inhibition)
T1 construct: solubilized enzyme preparations from liver microsomes of rats; from tissue; host or cells: rat liver microsomes (cholestyramine-induced rats), solubilized
T1 sequence (P51639 1-887): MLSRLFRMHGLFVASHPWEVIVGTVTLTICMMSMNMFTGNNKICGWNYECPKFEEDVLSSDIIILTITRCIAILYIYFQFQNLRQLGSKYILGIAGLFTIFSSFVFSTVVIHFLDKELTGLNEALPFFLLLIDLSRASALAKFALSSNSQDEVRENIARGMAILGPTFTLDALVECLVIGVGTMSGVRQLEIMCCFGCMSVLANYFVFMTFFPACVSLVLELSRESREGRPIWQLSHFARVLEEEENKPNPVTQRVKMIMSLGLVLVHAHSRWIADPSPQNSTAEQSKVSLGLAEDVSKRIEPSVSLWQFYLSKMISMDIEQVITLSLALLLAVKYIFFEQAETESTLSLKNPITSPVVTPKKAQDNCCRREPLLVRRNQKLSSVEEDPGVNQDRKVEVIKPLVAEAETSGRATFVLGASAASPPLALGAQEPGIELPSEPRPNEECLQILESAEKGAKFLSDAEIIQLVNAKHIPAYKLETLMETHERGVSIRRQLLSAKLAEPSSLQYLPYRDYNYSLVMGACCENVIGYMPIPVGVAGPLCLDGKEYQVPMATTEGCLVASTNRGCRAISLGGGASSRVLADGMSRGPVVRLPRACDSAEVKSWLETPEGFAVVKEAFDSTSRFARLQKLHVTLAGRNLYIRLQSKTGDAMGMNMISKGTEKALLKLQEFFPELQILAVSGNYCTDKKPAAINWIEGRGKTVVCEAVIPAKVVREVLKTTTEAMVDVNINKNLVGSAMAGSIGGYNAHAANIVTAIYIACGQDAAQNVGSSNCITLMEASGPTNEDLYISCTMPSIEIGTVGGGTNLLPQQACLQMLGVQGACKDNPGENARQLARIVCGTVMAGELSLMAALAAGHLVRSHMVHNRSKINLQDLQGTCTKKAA
Protocol: 1) Inhibition of HKG-CoA reductase activity in solubilized enzyme preparations from rat liver microsomes
HMG-CoA reductase activity was measured on solubilized enzyme preparations from liver microsomes of rats which had been induced by conversion into the day/night rhythm using cholestyramine (®Cuemid). (S,R)^14 C-HMG-CoA was used as a substrate, and the concentration of NADPH was maintained during the incubation by a regenerating system. The separation of ^14 C-mevalonate from substrate and other products (for example ^14 C-HMG) was carried out by column elution, the elution profile of each individual sample being determined. The regular addition of ^3 H-mevalonate was avoided as the determination gives the data relative to the inhibitory action. The enzyme-free control, the enzyme-containing normal mixture (=100%) and those containing preparation additives were in each case treated together in one series of experiments. The sodium salts of the dihydroxycarboxylic acids of the formula II were always employed as the preparation in this test. Each individual value was formed as the mean value of 3 parallel samples. The significance of the mean value differences between preparation-free and preparation-containing samples was evaluated by the t-test.

[4] = tested on: microsomal lipid peroxidation; test: Inhibition of microsomal lipid peroxidation (in vitro); assay type: biochemical; conditions: for IC50: microsomes, read-out: IC50 (50% inhibition of lipid peroxidation)
Protocol: 5) Inhibition of microsomal lipid peroxidation (in vitro)
The inhibition of lipid peroxidation was measured under the experimental conditions described by H. Wafers and H. Sies, Eur. J. Biochem. 174, 353-357 (1988). The microsomes were obtained according to the literature cited therein. IC50 denotes the concentration of the test compound in moles per liter which causes a 50% inhibition of lipid peroxidation.

[5] = tested on: serum lipoproteins; test: Action on serum lipoproteins and other metabolic parameters of male rats in the subchronic test; assay type: in vivo; conditions: rat
Protocol: 3) Action on serum lipoproteins and other metabolic parameters of male rats in the subchronic test
Groups of male rats of the strain HOE: WISKf (SPF 71) having a starting weight of above 180 g received the test preparations daily in the morning (sodium salts of the dihydroxycarboxylic acids of the formula II) in polyethylene glycol 400 by stomach tube; the respective control group received only the vehicle. The last (7th) administration was carried out 24 hours before taking blood and sacrificing. There was free access to food and water during the experiment. 24 hours before taking blood, which wall carried out retroorbitally under slight ether anesthesia before and after the treatment period (i.e. on the 1st and 8th day), the food was withdrawn. Total cholesterol was determined in the serum of each individual animal [CHODPAP high performance method of Boehringer Mannheim], and, as a measure of the triglycerides, total glycerol was also determined analytically from the serum pool of all the animals of one group [GPO-PAP high performance method, Boehringer Mannheim].
Immediately after taking blood, the animals were sacrificed by dislocation of the spine, and the relative liver weight, the change in body weight and the food consumption were determined.
For the analysis of the serum lipoproteins, the serum of all the rats of one group was pooled. The serum lipoproteins were separated using the preparative ultracentrifuge.
The following conditions were used for the separation of the fractions VLDL, LDL and HDL:
The determination of the protein was carried out by the method of Lowry et al. [LOWRY O. H., ROSEBOROUGH, N.J., PARR, A. L. and RANDELL, R. J.: J. Biol. Chem. 193, 265 (1951)].

[6] = 10 mg then 20 mg/kg per day, discharge phase 3
[7] = 10 mg then 20 mg/kg per day, discharge phase 6
[8] = 10 mg then 20 mg/kg per day, discharge phase 11
[9] = 10 mg then 20 mg/kg per day, discharge phase 22
[10] = 10 mg/kg per day (up to 10th day), administration 3
[11] = 10 mg/kg per day (up to 10th day), administration 10
[12] = 20 mg/kg per day (from 11th day), administration 14
[13] = 20 mg/kg per day (from 11th day), administration 17
[14] = 20 mg/kg per day (from 11th day), administration 20
[15] = HepG2, sodium salts, test compounds corrected by deviation of mevinolin sodium from its mean value, read-out: IC50 (concentration necessary for a 50% inhibition)
[16] = 100 mg/kg daily by stomach tube, 7 administrations

CC(C)c1cc(-c2ccc(F)cc2)c(OC[C@@H](O)C[C@@H](O)CC(=O)[O-])c(C(C)C)c1.[Na+] [Compound C, 3(R),5(S)-dihydroxy-6[-2-(4-fluorophenyl)-4,6-diisopropylphenoxy]hexanoicacid sodium salt]
IC50 ([1]; HepG2, read-out: IC50 (concentration necessary for a 50% inhibition)): 27 nM | IC70 ([1]; HepG2, read-out: IC70 (concentration necessary for a 70% inhibition)): 70 nM | Relative potency in % ([1]; mevinolin sodium = 100): 185% | Relative potency in % (value in parentheses) ([1]; mevinolin sodium = 100, in parentheses, corresponds to IC70): 214% | Serum total cholesterol, % change compared to control group [2, 6]: -13% | Serum total cholesterol, % change compared to control group [2, 7]: -23% | Serum total cholesterol, % change compared to control group [2, 8]: -16% | Serum total cholesterol, % change compared to control group [2, 9]: +18% | Serum total cholesterol, % change compared to control group [2, 10]: +7% | Serum total cholesterol, % change compared to control group [2, 11]: -32% | Serum total cholesterol, % change compared to control group [2, 12]: -31% | Serum total cholesterol, % change compared to control group [2, 13]: -37% | Serum total cholesterol, % change compared to control group [2, 14]: -36%

Cc1cc(-c2cc(Sc3ccc(F)cc3)cc(C(C)C)c2OC[C@@H](O)C[C@@H](O)CC(=O)O)ccc1F [Example 3]
IC50 [3]: 4 nM | IC50 [1, 15]: 3.8 nM | Relative potency in % ([1]; mevinolin sodium = 100): 1316%

CC[C@H](C)C(=O)O[C@H]1C[C@@H](C)C=C2C=C[C@H](C)[C@H](CC[C@@H]3C[C@@H](O)CC(=O)O3)[C@H]21 [Mevinolin]
Serum total cholesterol, % change compared to control group [2, 6]: +14% | Serum total cholesterol, % change compared to control group [2, 7]: -1% | Serum total cholesterol, % change compared to control group [2, 8]: +2% | Serum total cholesterol, % change compared to control group [2, 9]: 0% | Serum total cholesterol, % change compared to control group [2, 10]: -12% | Serum total cholesterol, % change compared to control group [2, 11]: -30% | Serum total cholesterol, % change compared to control group [2, 12]: -27% | Serum total cholesterol, % change compared to control group [2, 13]: -24% | Serum total cholesterol, % change compared to control group [2, 14]: -26%

CC(C)c1cc(S)cc(-c2ccc(F)cc2)c1O [Process Example 4, 2-(P-Fluorophenyl)-4-mercapto-6-isopropylphenol]
Inhibition at 10^-5 mol/l [4]: 90% | IC50 [4]: 4400 nM

CC(C)c1cc(SC(C)(C)Sc2cc(-c3ccc(F)cc3)c(O)c(C(C)C)c2)cc(-c2ccc(F)cc2)c1O [Process Example 5, 4,4-(Isopropylidenedithio)-bis-[(2-isopropyl-6-p-fluorophenyl)phenol]]
Inhibition at 10^-5 mol/l [4]: 11%

CC(C)c1cc(Sc2ccccc2)cc(-c2ccc(F)cc2)c1O [Process Example 7, 2-(p-Fluorophenyl)-4-(phenylthio)-6-isopropylphenol]
Inhibition at 10^-5 mol/l [4]: 92% | IC50 [4]: 4000 nM

CC(C)Sc1cc(-c2ccc(F)cc2)c(O)c(C(C)C)c1 [Process Example 8, 2-(p-Fluorophenyl)-4-(isopropylthio)-6-isopropylphenol]
Inhibition at 10^-5 mol/l [4]: 1%

Oc1c(-c2ccc(F)cc2)cc(Sc2ccc(F)cc2)cc1C1CC1 [Process Example 12, 2-(p-Fluorophenyl)-4-(p-fluorophenylthio)-6-cyclopropylphenol]
Inhibition at 10^-5 mol/l [4]: 99% | IC50 [4]: 1500 nM

CC(C)c1c(O)c(C(C)C)c(C(C)C)c(O)c1-c1ccc(F)cc1 [Process Example 22, 2-(p-Fluorophenyl)-3,5,6-triisopropyl-1,4-hydroquinone]
Inhibition at 10^-5 mol/l [4]: 99% | IC50 [4]: 1600 nM

CC(=O)Oc1c(-c2ccc(F)cc2)c(C(C)C)c(O)c(C(C)C)c1C(C)C [Process Example 23, 2,5,6-Triisopropyl-3-(p-fluorophenyl)-4-acetoxyphenol]
Inhibition at 10^-5 mol/l [4]: 98% | IC50 [4]: 2800 nM

CCOC(=O)C(C)(C)Oc1ccc(Cl)cc1 [clofibrate, reference compound]
Body weight, % changes in the mean value relative to starting [5, 16]: +8% | Food consumption, % changes in the mean value relative to control [5, 16]: +1% | Glycerol VLDL, % change compared to control [5, 16]: +4% | Liver weight, % changes in the mean value relative to control [5, 16]: +15% | Protein LDL, % change compared to control [5, 16]: -9% | Protein VLDL, % change compared to control [5, 16]: -16% | Total cholesterol HDL, % change compared to control [5, 16]: -29% | Total cholesterol LDL, % change compared to control [5, 16]: -19% | Total cholesterol VLDL, % change compared to control [5, 16]: -40% | Cholesterol HDL/LDL ([5]; 100 mg/kg daily, control standardization to 1.00): 0.88

CC[C@H](C)C(=O)O[C@H]1C[C@@H](C)C=C2C=C[C@H](C)[C@H](CC[C@@H](O)C[C@@H](O)CC(=O)O)[C@H]21 [mevinolin sodium salt, reference compound]
IC50 [1, 15]: 50 nM | IC70 ([1]; HepG2, sodium salts, test compounds corrected by deviation of mevinolin sodium from its mean value, read-out: IC70 (concentration necessary for a 70% inhibition)): 150 nM | IC70 (concentration necessary for a 70% inhibition) ([1]; sodium salts, test compounds corrected by deviation of mevinolin sodium from its mean value): 150 nM
